Results: patent publication US5561139A, “Substituted alicyclic-aliphatic amine-containing macrocyclic immunomodulators” (Abbott Laboratories, priority 1995, dated 1996)

system: human mixed lymphocyte reaction (MLR); assay: human mixed lymphocyte reaction (MLR) assay, immunosuppressant activity; assay type: cell-based; conditions: Table 1
Description: Example 68; In Vitro Assay of Biological Activity
The immunosuppressant activity of the compounds of the present invention was determined using the human mixed lymphocyte reaction (MLR) assay described by Kino, T. et al. in Transplantation Proceedings XIX(5);36-39, Suppl. 6 (1987), incorporated herein by reference.

Compound | IC50 [nM]
CC[C@@H]1/C=C(\C)C[C@H](C)C[C@H](OC)[C@H]2O[C@@](O)(C(=O)C(=O)N3CCCC[C@H]3C(=O)O[C@H](/C(C)=C/[C@@H]3CC[C@@H](NCCCN4CCCCC4)[C@H](OC)C3)[C@H](C)[C@@H](O)CC1=O)[C@H](C)C[C@@H]2OC [Example 47] | < 1000
CC[C@@H]1/C=C(\C)C[C@H](C)C[C@H](OC)[C@H]2O[C@@](O)(C(=O)C(=O)N3CCCC[C@H]3C(=O)O[C@H](/C(C)=C/[C@@H]3CC[C@H](NCCCN4CCCCC4)[C@H](OC)C3)[C@H](C)[C@@H](O)CC1=O)[C@H](C)C[C@@H]2OC [Example 9] | < 1000
CC[C@@H]1/C=C(\C)C[C@H](C)C[C@H](OC)[C@H]2O[C@@](O)(C(=O)C(=O)N3CCCC[C@H]3C(=O)O[C@H](/C(C)=C/[C@@H]3CC[C@H](NCCN4CCOCC4)[C@H](OC)C3)[C@H](C)[C@@H](O)CC1=O)[C@H](C)C[C@@H]2OC [Example 5] | < 1000
CC[C@@H]1/C=C(\C)C[C@H](C)C[C@H](OC)[C@H]2O[C@@](O)(C(=O)C(=O)N3CCCC[C@H]3C(=O)O[C@H](/C(C)=C/[C@@H]3CC[C@H](NCCCN4CCN(C)CC4)[C@H](OC)C3)[C@H](C)[C@@H](O)CC1=O)[C@H](C)C[C@@H]2OC [Example 12] | < 1000
CC[C@@H]1/C=C(\C)C[C@H](C)C[C@H](OC)[C@H]2O[C@@](O)(C(=O)C(=O)N3CCCC[C@H]3C(=O)O[C@H](/C(C)=C/[C@@H]3CC[C@H](N(CCO)CCN4CCOCC4)[C@H](OC)C3)[C@H](C)[C@@H](O)CC1=O)[C@H](C)C[C@@H]2OC [Example 30] | < 1000

Further lines, results first:

IC50 [nM] | Compound
< 1000 | CC[C@@H]1/C=C(\C)C[C@H](C)C[C@H](OC)[C@H]2O[C@@](O)(C(=O)C(=O)N3CCCC[C@H]3C(=O)O[C@H](/C(C)=C/[C@@H]3CC[C@H](NC4CCN(Cc5ccccc5)CC4)[C@H](OC)C3)[C@H](C)[C@@H](O)CC1=O)[C@H](C)C[C@@H]2OC [Example 8]
< 1000 | CC[C@@H]1/C=C(\C)C[C@H](C)C[C@H](OC)[C@H]2O[C@@](O)(C(=O)C(=O)N3CCCC[C@H]3C(=O)O[C@H](/C(C)=C/[C@@H]3CC[C@H](NCCN4CCNCC4)[C@H](OC)C3)[C@H](C)[C@@H](O)CC1=O)[C@H](C)C[C@@H]2OC [Example 18]
< 1000 | CC[C@@H]1/C=C(\C)C[C@H](C)C[C@H](OC)[C@H]2O[C@@](O)(C(=O)C(=O)N3CCCC[C@H]3C(=O)O[C@H](/C(C)=C/[C@@H]3CC[C@H](NCCN4CCCC4)[C@H](OC)C3)[C@H](C)[C@@H](O)CC1=O)[C@H](C)C[C@@H]2OC [Example 19]
< 1000 | CC[C@@H]1/C=C(\C)C[C@H](C)C[C@H](OC)[C@H]2O[C@@](O)(C(=O)C(=O)N3CCCC[C@H]3C(=O)O[C@H](/C(C)=C/[C@@H]3CC[C@H](NCCCN4CCOCC4)[C@H](OC)C3)[C@H](C)[C@@H](O)CC1=O)[C@H](C)C[C@@H]2OC [Example 17]
